Measured values taken from paper PMC5733478, “A Non-imaging High Throughput Approach to Chemical Library Screening at the Unmodified Adenosine-A3 Receptor in Living Cells” (Frontiers in Pharmacology, 2017).
Where a name gives a salt, the structure may show the parent alone. Read-outs that look alike come from different tables or passages of the source.

Target: T1, human A3AR (Homo sapiens, UniProt P0DMS8)
T1 construct: expressed in transfected cells
T1 sequence (P0DMS8 1-318): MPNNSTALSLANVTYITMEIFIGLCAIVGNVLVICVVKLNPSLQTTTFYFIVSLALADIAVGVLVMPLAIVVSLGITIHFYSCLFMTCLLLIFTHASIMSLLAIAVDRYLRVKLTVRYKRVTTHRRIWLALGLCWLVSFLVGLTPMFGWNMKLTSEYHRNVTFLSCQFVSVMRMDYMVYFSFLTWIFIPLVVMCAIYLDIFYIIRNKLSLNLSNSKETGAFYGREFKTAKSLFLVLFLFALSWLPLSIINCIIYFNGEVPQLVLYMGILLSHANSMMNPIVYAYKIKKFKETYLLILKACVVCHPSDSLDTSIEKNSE
Assay: LOPAC library primary screen: single concentration (10 μM) inhibition of 25 nM CA200645 binding, PHERAstar FS

Compound	% 25 nM CA200645 binding [%]	further results
Cn1cc(C(=O)OCC2CCN(CCNS(C)(=O)=O)CC2)c2ccccc21 [GR 113808]	92.8 ± 8.0	
CC/C(=C(\c1ccccc1)c1ccc(OCCN(C)C)cc1)c1ccccc1 [Tamoxifen]	83.1 ± 23.3	
COc1cc2nc(N3CCCN(C)CC3)nc(NC3CCN(Cc4ccccc4)CC3)c2cc1OC [BIX 01294 trihydrochloride hydrate]	97.9 ± 21.2	
O=c1[nH]c2ccccc2n1C1CCN(CCCC(c2ccc(F)cc2)c2ccc(F)cc2)CC1 [Pimozide]	78.2 ± 10.9	
COc1ccc2[n-]c([S@@+]([O-])Cc3ncc(C)c(OC)c3C)nc2c1.COc1ccc2[n-]c([S@@+]([O-])Cc3ncc(C)c(OC)c3C)nc2c1.O.O.[Mg+2] [Esomeprazole magnesium dihydrate]	81.5 ± 16.8	
CCCNC(C)C(=O)Nc1ccccc1C (stereo not drawn) [Prilocaine hydrochloride]	106.9 ± 9.7	
CN(N=O)c1cc(O)ccc1O [Dephostatin]	75.4 ± 19.6	
CCCCCCCCCC(=O)NC(CN1CCOCC1)[C@H](O)c1ccccc1.Cl (mixture of isomers)	98.6 ± 11.0	
O=C(O)/C(=C/c1c(C(=O)O)[nH]c2cc(Cl)cc(Cl)c12)c1ccccc1 [MDL 105,519]	101.6 ± 19.9	
Cc1ccccc1/C=C/C1=NCCN1 [Metrazoline oxalate]		% 25 nM CA200645 binding (% of control wells (1% DMSO and 25 nM CA200645), compounds at 10 µM, whole live cells expressing the A3AR, mean ± SD, three experiments in duplicate): 97.1 ± 2.0%
CNCCc1c[nH]c2ccc(O)cc12.O=C(O)C(=O)O	111.6 ± 33.8	
Cc1cc(C(C)(C)C)cc(C)c1CC1=NCCN1 [Xylometazoline hydrochloride]	106.7 ± 10.4	
Cc1c2ccncc2c(C)c2c1[nH]c1ccccc12 [Ellipticine]	78.2 ± 23.8	
NC(N)=NCCCCN=C(N)N [Arcaine sulfate]		% 25 nM CA200645 binding (compounds tested at 10 µM, % of control wells (1% DMSO and 25 nM CA200645), whole live cells expressing the A3AR, mean ± SD, three experiments in duplicate): 96.1 ± 6.4%
CCN(c1nc(N)c(C(=O)NC(=N)N)nc1Cl)C(C)C [5-(N-Ethyl-N-isopropyl)amiloride]	94.1 ± 7.3	
CCCN1CCOC2c3cc(O)ccc3OCC21.Cl (racemic) [(±)-PD 128,907 hydrochloride]	103.2 ± 2.1	
S=C([S-])OC1CC2CC1C1CCCC21.[K+] [D-609 potassium]	95.5 ± 4.1	
COc1ccc2c(c1OC)C(=O)OC2C1c2cc3c(cc2CCN1C)OCO3 (single isomer, unassigned; (+)) [(+)-Hydrastine]	95.9 ± 10.1	
CN1[C@@H]2CC[C@H]1C[C@@H](OC(c1ccccc1)c1ccccc1)C2 [Benztropine mesylate]	96.0 ± 5.8	
C#C[C@]1(O)CC[C@H]2[C@@H]3CCC4=Cc5oncc5C[C@]4(C)[C@H]3CC[C@@]21C [Danazol]	86.4 ± 9.1	
CCN(CC)CCCN(c1ccccc1)C1Cc2ccccc2C1 [Aprindine hydrochloride]	96.8 ± 13.3	
CN(C)CCCN1c2ccccc2CCc2ccccc21 [Imipramine hydrochloride]	99.2 ± 4.6	
O=c1cc(-c2ccccc2F)[nH]c2cc3c(cc12)OCO3 [CHM-1 hydrate]	97.3 ± 5.3	
CC(C)NCC(O)c1cc(O)cc(O)c1.CC(C)NCC(O)c1cc(O)cc(O)c1.O=S(=O)(O)O (stereo not drawn) [Metaproterenol hemisulfate]	102.0 ± 5.4	
CC(C)(CO)Cc1cc(C(C)(C)C)c(O)c(C(C)(C)C)c1 [CGP-7930]	87.6 ± 4.9	
C1CNCCN1.COc1cc(C(O)CO)ccc1O.COc1cc(C(O)CO)ccc1O (stereo not drawn) [MHPG piperazine]	95.1 ± 7.6	
C[N+](C)(C)CC#CCN1CCCC1=O [Oxotremorine methiodide]	101.3 ± 18.6	
Nc1ccc(CCN2CCN(c3cccc(C(F)(F)F)c3)CC2)cc1 [PAPP]	95.6 ± 9.9	
CC(CCc1ccc(O)cc1)NCCc1ccc(O)c(O)c1 (stereo not drawn) [Dobutamine hydrochloride]	101.9 ± 15.9	
O=c1[nH]c2ccccc2c2ccccc12 [6(5H)-Phenanthridinone]	41.6 ± 14.1	
